How the values were obtained:
barley = experiment: Herbicidal bioassay, barley (% necrosis); assay type: in vivo
Method: (§1) A laboratory bioassay was conducted to screen ten compounds (Fluazifop (25); Ethyl fluazifop (62); five fluazifop analogues: 27, 28, 63, 64 and 65; mesofulfuron (6); and two mesosulfuron analogues: 8 and 61. for activity against Lolium perenne, barley, peas and Chinese cabbage. Compounds were diluted in DMSO. Controls were performed using both DMSO and water.
(§2) Plants were obtained as seeds and were grown to the 2-4 true leaf stage. Plants were grown individually in seed trays. Each plant (in an approximately 3 cm diameter plug) was then detached from the tray for spraying. Environmental conditions were closely monitored and recorded and were within the optimal range of the target species.
(§3) The compounds were screened at a range of six concentrations, eg. 0.05%, 0.01%, 0.005%, 0.001%, 0.0005% and 0.0001%. Treatments will be applied directly onto the plants, using a potter tower.
(§4) One plant of each type will be sprayed using a potter tower. The 4 different types of weeds will be placed in a 10 cm diameter area underneath the potter sprayer and sprayed simultaneously. The growth of the plants and any Phytotoxicity effects will then be assessed at specified growth intervals, according to EPPO guideline PP1/135. Five replicates will be performed for each treatment, for each species.

peas = experiment: Herbicidal bioassay, peas (% necrosis); assay type: in vivo
Method: as §1, §2, §3, §4

CC(CO)Oc1ccc(Oc2ccc(C(F)(F)F)cn2)cc1 (stereo not drawn) [Compound 27, 2-[4-[[5-(Trifluoromethyl)-2-pyridyl]oxy]phenoxy]propan-1-ol]
C (less than 50% necrosis): Sum of % necrosis in barley (barley; Dose 0.000001, Day 0) | Sum of % necrosis in barley (barley; Dose 0.000001, Day 3) | Sum of % necrosis in barley (barley; Dose 0.000001, Day 7) | Sum of % necrosis in barley (barley; Dose 0.000001, Day 10) | Sum of % necrosis in barley (barley; Dose 0.000001, Day 14) | Sum of % necrosis in barley (barley; Dose 0.000001, Day 21) | Sum of % necrosis in barley (barley; Dose 0.000005, Day 0) | Sum of % necrosis in barley (barley; Dose 0.000005, Day 3) | Sum of % necrosis in barley (barley; Dose 0.000005, Day 7) | Sum of % necrosis in barley (barley; Dose 0.000005, Day 10) | Sum of % necrosis in barley (barley; Dose 0.000005, Day 14) | Sum of % necrosis in barley (barley; Dose 0.000005, Day 21) | Sum of % necrosis in barley (barley; Dose 0.00001, Day 0) | Sum of % necrosis in barley (barley; Dose 0.00001, Day 3) | Sum of % necrosis in barley (barley; Dose 0.00001, Day 7) | Sum of % necrosis in barley (barley; Dose 0.00001, Day 10) | Sum of % necrosis in barley (barley; Dose 0.00001, Day 14) | Sum of % necrosis in barley (barley; Dose 0.00001, Day 21) | Sum of % necrosis in barley (barley; Dose 0.00005, Day 0) | Sum of % necrosis in barley (barley; Dose 0.00005, Day 3) | Sum of % necrosis in barley (barley; Dose 0.00005, Day 7) | Sum of % necrosis in barley (barley; Dose 0.00005, Day 10) | Sum of % necrosis in barley (barley; Dose 0.00005, Day 14) | Sum of % necrosis in barley (barley; Dose 0.00005, Day 21) | Sum of % necrosis in barley (barley; Dose 0.0001, Day 0) | Sum of % necrosis in barley (barley; Dose 0.0001, Day 3) | Sum of % necrosis in barley (barley; Dose 0.0001, Day 7) | Sum of % necrosis in barley (barley; Dose 0.0001, Day 10) | Sum of % necrosis in barley (barley; Dose 0.0001, Day 14) | Sum of % necrosis in barley (barley; Dose 0.0001, Day 21) | Sum of % necrosis in barley (barley; Dose 0.0005, Day 0) | Sum of % necrosis in barley (barley; Dose 0.0005, Day 3) | Sum of % necrosis in barley (barley; Dose 0.0005, Day 7) | Sum of % necrosis in barley (barley; Dose 0.0005, Day 10) | Sum of % necrosis in barley (barley; Dose 0.0005, Day 14) | Sum of % necrosis in barley (barley; Dose 0.0005, Day 21) | Sum of % necrosis in Peas (peas; Dose 0.000001, Day 0) | Sum of % necrosis in Peas (peas; Dose 0.000001, Day 1) | Sum of % necrosis in Peas (peas; Dose 0.000001, Day 3) | Sum of % necrosis in Peas (peas; Dose 0.000001, Day 7) | Sum of % necrosis in Peas (peas; Dose 0.000001, Day 10) | Sum of % necrosis in Peas (peas; Dose 0.000001, Day 14) | Sum of % necrosis in Peas (peas; Dose 0.000001, Day 21) | Sum of % necrosis in Peas (peas; Dose 0.000005, Day 0) | Sum of % necrosis in Peas (peas; Dose 0.000005, Day 1) | Sum of % necrosis in Peas (peas; Dose 0.000005, Day 3) | Sum of % necrosis in Peas (peas; Dose 0.000005, Day 7) | Sum of % necrosis in Peas (peas; Dose 0.000005, Day 10) | Sum of % necrosis in Peas (peas; Dose 0.000005, Day 14) | Sum of % necrosis in Peas (peas; Dose 0.000005, Day 21) | Sum of % necrosis in Peas (peas; Dose 0.00001, Day 0) | Sum of % necrosis in Peas (peas; Dose 0.00001, Day 1) | Sum of % necrosis in Peas (peas; Dose 0.00001, Day 3) | Sum of % necrosis in Peas (peas; Dose 0.00001, Day 7) | Sum of % necrosis in Peas (peas; Dose 0.00001, Day 10) | Sum of % necrosis in Peas (peas; Dose 0.00001, Day 14) | Sum of % necrosis in Peas (peas; Dose 0.00001, Day 21) | Sum of % necrosis in Peas (peas; Dose 0.00005, Day 0) | Sum of % necrosis in Peas (peas; Dose 0.00005, Day 1) | Sum of % necrosis in Peas (peas; Dose 0.00005, Day 3) | Sum of % necrosis in Peas (peas; Dose 0.00005, Day 7) | Sum of % necrosis in Peas (peas; Dose 0.00005, Day 10) | Sum of % necrosis in Peas (peas; Dose 0.00005, Day 14) | Sum of % necrosis in Peas (peas; Dose 0.00005, Day 21) | Sum of % necrosis in Peas (peas; Dose 0.0001, Day 0) | Sum of % necrosis in Peas (peas; Dose 0.0001, Day 1) | Sum of % necrosis in Peas (peas; Dose 0.0001, Day 3) | Sum of % necrosis in Peas (peas; Dose 0.0001, Day 7) | Sum of % necrosis in Peas (peas; Dose 0.0001, Day 10) | Sum of % necrosis in Peas (peas; Dose 0.0001, Day 14) | Sum of % necrosis in Peas (peas; Dose 0.0001, Day 21) | Sum of % necrosis in Peas (peas; Dose 0.0005, Day 0) | Sum of % necrosis in Peas (peas; Dose 0.0005, Day 1) | Sum of % necrosis in Peas (peas; Dose 0.0005, Day 3) | Sum of % necrosis in Peas (peas; Dose 0.0005, Day 7) | Sum of % necrosis in Peas (peas; Dose 0.0005, Day 10) | Sum of % necrosis in Peas (peas; Dose 0.0005, Day 14) | Sum of % necrosis in Peas (peas; Dose 0.0005, Day 21)

From patent US20150094474A1, “AGRICULTURAL CHEMICALS” (Redx Pharma Ltd., priority 2012, published 2015)
